Source: patent publication US20160106868A1, “OXYGEN FREE RADICAL DETECTION” (Progenitec Inc., priority 2014, published 2016)

What was measured:
mouse peritoneal PMNs = assay: ROS chemiluminescence of PMA-activated PMNs, L-012 vs. luminol; type: cell-based; conditions: 1×10^6 PMNs, 2 mM probe; for chemiluminescence emission with PMA activation: PMA (6.5 nM)
Procedure: The ROS measurements were initiated by adding 10 μl of PMA (6.5 nM) at room temperature. Chemiluminescence images 410, 420 were captured with a 5 minute acquisition time using a Kodak In Vivo FX Pro system (f/stop, 2.5; no optical filter, 4×4 binning).

[1] = system: hypertension-suffering eye; assay: in vivo oxidative stress imaging of mouse eyes; conditions: L-012 10 μL, 15 mg/mL topically on eyes
Procedure: Referring now to FIG. 5, subsequent studies were carried out to evaluate the feasibility of L-012 for in vivo oxidative stress imaging. L-012 (10 μL, 15 mg/mL) was topically dropped on a mouse's eyes with hypertension-suffering left eye 510 or control right eye 520. The animal was sedated and then imaged with a Kodak in vivo FX imaging system, resulting in image 500. A strong bioluminescence signal was found in the hypertension-suffering left eye 510, while control right eye 520 emitted low or no chemiluminescence.

[2] = system: isolated neutrophils (PMNs); assay: detection of ROS generated by isolated PMA-activated neutrophils with nanoprobes; type: cell-based; conditions: 5 mM Tempol; fluorescence signal remained constant
Procedure: A number of PMN (5×10^4 to 1×10^6) were incubated in 0.25 ml of 0.9% NaCl solution containing 10 mM phosphate buffer (pH 7.4), 6 mM KCl, and 6 mM MgCl2 in the presence of the nanoprobes (10 μl, 0.5 mg/ml). After incubation of the mixture for 3 min at 37° C., the reaction were initiated by adding 6 nM phorbol 12-myristate 13-acetate (PMA). During the incubation, chemiluminescence and fluorescence intensities were recorded continuously for 60 minutes using a microplate reader.
To verify whether the chemiluminescence signals resulted from ROS generated by activated PMNs, similar PMN-mediated chemiluminescence measurements were carried out in the presence or absence of Tempol, a superoxide dismutase mimetic/ROS neutralizer.

Molecule | chemiluminescence emission with PMA activation (mouse peritoneal PMNs) | chemiluminescence signal intensity relative to luminol (mouse peritoneal PMNs; PMA activation, 5 minute acquisition) | signal enhancement in hypertension-suffering eye vs control eye [1] | PMN-mediated chemiluminescence intensity in the presence of Tempol [2]
1,4-phthalazinedione, 5-amino-2,3-dihydro [luminol] | emitted chemiluminescence | – | – | –
Nc1c(-c2ccccc2)nc(Cl)c2c(=O)[nH][nH]c(=O)c12 [L-012, 8-amino-5-chloro-7-phenylpyridol[3,4-d]pyridazine-1,4 (2H,3H)dione] | emitted chemiluminescence | approximately 1000 fold | ten-fold | –
CC1(C)CC(O)CC(C)(C)N1[O] [Tempol] | – | – | – | substantially reduced
